Experimental data reported in ChEMBL document CHEMBL1201862, “PubChem BioAssay data set” (2004).
Active and inactive are the calls of the source.

What was measured:
[1] = target: T1, Polyadenylate-binding protein 1 (Homo sapiens, UniProt P11940); experiment: PABP1 MLLE–PAM2 interaction inhibitors, dose response, miRNA deadenylation inhibitor project, biochemical, fluorescence polarization, Cy5-PAM2 peptide, secondary (AID 602260); type: functional; conditions: read-out: IC50_Mean
[2] = target: T1, Polyadenylate-binding protein 1; experiment: PABP1 MLLE–PAM2 binding inhibitor potency, dose response, biochemical, fluorescence polarization, FITC-PAM2 peptide (AID 602259); type: functional; conditions: read-out: IC50_Mean
Cytochrome P450 2C9 = Cytochrome P450 2C9 (Homo sapiens, UniProt P11712)
Chain of Cytochrome P450 2C9 (P11712 whole entry): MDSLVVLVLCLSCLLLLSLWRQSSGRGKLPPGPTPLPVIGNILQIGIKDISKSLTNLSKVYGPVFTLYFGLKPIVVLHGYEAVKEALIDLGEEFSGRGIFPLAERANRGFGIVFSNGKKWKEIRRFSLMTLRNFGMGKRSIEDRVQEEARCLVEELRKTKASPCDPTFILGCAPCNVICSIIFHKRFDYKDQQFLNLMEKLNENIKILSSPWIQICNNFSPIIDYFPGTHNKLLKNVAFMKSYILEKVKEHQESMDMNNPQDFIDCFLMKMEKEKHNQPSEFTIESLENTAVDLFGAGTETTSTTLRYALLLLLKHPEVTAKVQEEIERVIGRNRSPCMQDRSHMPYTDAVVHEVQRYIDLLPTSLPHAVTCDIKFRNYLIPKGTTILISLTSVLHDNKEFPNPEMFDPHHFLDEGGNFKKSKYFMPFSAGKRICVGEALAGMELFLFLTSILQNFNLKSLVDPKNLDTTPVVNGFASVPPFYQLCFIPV

Cytochrome P450 2D6 = Cytochrome P450 2D6 (Homo sapiens, UniProt P10635);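 further: CYP2D6 member of a cytochrome P450 panel assay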
Chain of Cytochrome P450 2D6 (P10635 whole entry): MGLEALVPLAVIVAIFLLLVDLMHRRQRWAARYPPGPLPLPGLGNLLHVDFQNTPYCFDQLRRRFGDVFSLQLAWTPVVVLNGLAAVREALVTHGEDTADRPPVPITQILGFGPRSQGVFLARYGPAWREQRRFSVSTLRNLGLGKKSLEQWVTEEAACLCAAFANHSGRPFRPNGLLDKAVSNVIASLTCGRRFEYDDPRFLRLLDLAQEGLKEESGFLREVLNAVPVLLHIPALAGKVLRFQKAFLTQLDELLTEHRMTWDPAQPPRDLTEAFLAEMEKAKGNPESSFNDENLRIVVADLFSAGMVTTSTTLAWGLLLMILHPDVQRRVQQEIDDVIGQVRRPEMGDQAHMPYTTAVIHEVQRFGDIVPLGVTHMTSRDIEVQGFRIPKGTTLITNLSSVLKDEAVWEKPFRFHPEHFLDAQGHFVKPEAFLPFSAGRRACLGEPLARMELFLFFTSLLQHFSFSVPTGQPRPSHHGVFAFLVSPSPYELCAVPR

[3] = target: Luciferin 4-monooxygenase (Photinus pyralis, UniProt P08659); experiment: firefly luciferase enzyme inhibitors, dose response, biochemical, luminescence (AID 1891)
Chain of Luciferin 4-monooxygenase (P08659 whole entry): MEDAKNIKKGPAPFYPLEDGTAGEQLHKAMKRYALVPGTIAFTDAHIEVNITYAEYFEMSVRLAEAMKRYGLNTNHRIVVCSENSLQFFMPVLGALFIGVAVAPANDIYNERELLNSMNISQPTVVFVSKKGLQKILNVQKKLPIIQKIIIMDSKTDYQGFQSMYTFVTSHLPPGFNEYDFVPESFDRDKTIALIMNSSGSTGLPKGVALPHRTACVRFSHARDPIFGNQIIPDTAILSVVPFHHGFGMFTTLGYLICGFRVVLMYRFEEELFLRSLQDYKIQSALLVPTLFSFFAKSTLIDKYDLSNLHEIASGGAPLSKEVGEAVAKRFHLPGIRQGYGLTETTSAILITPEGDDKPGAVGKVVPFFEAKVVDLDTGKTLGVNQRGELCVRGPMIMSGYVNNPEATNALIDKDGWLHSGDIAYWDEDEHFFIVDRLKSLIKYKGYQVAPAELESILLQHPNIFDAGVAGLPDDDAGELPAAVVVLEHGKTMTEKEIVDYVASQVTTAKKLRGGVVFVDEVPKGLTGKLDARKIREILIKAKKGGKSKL

[4] = Luminescence Cell-Based Dose Confirmation HTS to Identify Inhibitors of Platelet Dense Granule Release. [Related pubchem assays: 1663 (Primary HTS), 1678 (Summary of Project)]; type: functional
Cytochrome P450 2C19 = Cytochrome P450 2C19 (Homo sapiens, UniProt P33261); experiment: Cytochrome panel assay with activity outcomes. Panel member name: p450-cyp2c19 Compounds with AC50 equal or less than 10 uM are considered active; type: functional
Chain of Cytochrome P450 2C19 (P33261 whole entry): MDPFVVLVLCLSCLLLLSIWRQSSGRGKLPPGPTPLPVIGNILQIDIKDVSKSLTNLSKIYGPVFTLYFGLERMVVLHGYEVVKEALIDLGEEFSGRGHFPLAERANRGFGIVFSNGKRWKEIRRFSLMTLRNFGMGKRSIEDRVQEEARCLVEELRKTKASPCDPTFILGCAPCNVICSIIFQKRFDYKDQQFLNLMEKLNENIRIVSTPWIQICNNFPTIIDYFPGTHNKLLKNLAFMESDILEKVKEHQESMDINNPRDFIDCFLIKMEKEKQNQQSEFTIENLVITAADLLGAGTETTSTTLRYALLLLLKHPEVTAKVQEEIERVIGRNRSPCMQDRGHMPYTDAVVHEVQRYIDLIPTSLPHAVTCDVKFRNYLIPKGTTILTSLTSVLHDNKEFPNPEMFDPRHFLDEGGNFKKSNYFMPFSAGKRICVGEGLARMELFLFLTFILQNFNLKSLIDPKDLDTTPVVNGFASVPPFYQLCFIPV

[5] = HEp-2 cell cytotoxicity, dose response, cytotoxicity control for RSV inhibitor project, HTS (AID 2410); type: functional; conditions: human respiratory syncytial virus
[6] = Shn3 3'UTR reporter inhibitors, dose response, cell-based, Clone20 osteoblasts, firefly luciferase, cherry-picked (AID 624132); type: functional;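 further: firefly luciferase luminescence from reporter carrying the Shn3 3'UTR in osteoblasts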
[7] = control 3'UTR Renilla luciferase suppression, dose response, counter-screen for Shn3 inhibitor project, cell-based, Clone20-Shn3RL, cherry-picked (AID 624133); type: functional
Vero = experiment: cells; type: functional; conditions: Chlorocebus sabaeus
[8] = target: T2, Corticotropin-releasing factor receptor 2/Corticotropin-releasing factor-binding protein (Homo sapiens, UniProt P24387+Q13324); experiment: Dose Response confirmation of uHTS hits for small molecule antagonists of the CRF-binding protein and CRF-R2 receptor complex.; type: functional; conditions: read-out: IC50_Mean
T2 sequence (Q13324 whole entry): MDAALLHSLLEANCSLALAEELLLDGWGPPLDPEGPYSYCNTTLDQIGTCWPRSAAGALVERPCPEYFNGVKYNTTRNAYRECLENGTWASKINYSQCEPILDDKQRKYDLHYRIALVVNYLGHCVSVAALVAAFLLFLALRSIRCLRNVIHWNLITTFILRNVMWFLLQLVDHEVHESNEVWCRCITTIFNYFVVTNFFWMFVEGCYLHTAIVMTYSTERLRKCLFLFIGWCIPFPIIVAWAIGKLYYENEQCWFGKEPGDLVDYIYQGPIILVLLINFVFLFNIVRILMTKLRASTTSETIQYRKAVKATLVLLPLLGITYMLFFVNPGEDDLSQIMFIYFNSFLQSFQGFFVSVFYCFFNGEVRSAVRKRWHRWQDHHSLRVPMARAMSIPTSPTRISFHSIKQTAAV
T2 sequence (P24387 whole entry): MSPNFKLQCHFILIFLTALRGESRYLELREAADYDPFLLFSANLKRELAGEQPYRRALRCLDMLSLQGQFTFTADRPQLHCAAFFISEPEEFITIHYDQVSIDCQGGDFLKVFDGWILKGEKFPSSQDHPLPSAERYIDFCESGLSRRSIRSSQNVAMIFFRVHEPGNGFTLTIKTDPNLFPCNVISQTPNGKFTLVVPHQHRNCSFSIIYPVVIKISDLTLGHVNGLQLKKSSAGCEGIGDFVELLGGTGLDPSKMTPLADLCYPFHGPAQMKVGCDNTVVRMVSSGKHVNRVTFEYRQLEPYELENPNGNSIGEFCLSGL

[9] = target: T2, Corticotropin-releasing factor receptor 2/Corticotropin-releasing factor-binding protein; experiment: activators of CRF receptor 2 with binding protein – uHTS hits, confirmation (AID 602473); type: functional; conditions: read-out: EC50_Mean
Cytochrome P450 1A2 = target: T3, Cytochrome P450 1A2 (Homo sapiens, UniProt P05177);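 further: PubChem cytochrome P450 panel assay, CYP1A2 panel member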
T3 sequence (P05177 whole entry): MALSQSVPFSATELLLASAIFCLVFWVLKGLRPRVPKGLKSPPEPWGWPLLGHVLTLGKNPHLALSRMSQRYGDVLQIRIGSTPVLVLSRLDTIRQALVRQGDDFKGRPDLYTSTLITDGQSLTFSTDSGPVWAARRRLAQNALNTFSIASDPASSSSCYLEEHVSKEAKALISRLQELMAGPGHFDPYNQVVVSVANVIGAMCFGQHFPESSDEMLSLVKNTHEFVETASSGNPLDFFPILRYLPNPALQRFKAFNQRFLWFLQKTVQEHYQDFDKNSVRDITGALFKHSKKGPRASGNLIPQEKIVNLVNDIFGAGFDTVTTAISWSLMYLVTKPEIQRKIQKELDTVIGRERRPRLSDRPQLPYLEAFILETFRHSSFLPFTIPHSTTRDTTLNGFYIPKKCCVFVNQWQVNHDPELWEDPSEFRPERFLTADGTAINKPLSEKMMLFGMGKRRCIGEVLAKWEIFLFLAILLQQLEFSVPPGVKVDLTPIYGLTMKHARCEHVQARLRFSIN

[10] = system: Streptococcus sp. 'group A'; experiment: growth inhibition of control SK(-) GAS strain, dose response, counter-screen for streptokinase expression inhibitor project, luminescence, kanamycin, BacTiterGlo, confirmation (AID 1900); type: functional, organism-based
Streptokinase A = target: T4, Streptokinase A (Streptococcus pyogenes serotype M1, UniProt P10520); experiment: S. pyogenes streptokinase expression inhibitors, potency, dose response, plasminogen activation absorbance, OD405 (AID 1914); type: functional, Streptococcus pyogenes M1 GAS;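 further: secreted streptokinase activity via plasminogen activation per viability signal from cell pellet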
T4 sequence (P10520 whole entry): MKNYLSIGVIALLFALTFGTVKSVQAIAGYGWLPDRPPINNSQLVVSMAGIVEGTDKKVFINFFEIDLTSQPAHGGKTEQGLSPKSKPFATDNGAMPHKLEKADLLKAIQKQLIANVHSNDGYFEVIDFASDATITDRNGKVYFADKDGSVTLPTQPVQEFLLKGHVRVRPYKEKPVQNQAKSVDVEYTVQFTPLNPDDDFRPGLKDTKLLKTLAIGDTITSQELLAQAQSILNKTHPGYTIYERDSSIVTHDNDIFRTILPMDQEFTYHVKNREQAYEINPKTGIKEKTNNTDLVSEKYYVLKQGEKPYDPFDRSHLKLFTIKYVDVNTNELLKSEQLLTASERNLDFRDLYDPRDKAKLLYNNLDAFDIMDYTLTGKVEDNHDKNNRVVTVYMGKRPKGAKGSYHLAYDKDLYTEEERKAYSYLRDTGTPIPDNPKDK

Streptococcus = experiment: Group A Streptococcus viability loss, dose response, counter-screen for streptokinase expression inhibitor project, luminescence, BacTiterGlo (AID 1915); type: functional, organism-based;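 further: potency for reduction of bacterial viability or growth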
[11] = target: T5, Heat shock factor protein 1 (Mus musculus, UniProt P38532); experiment: HSF1 potentiators in luciferase reporter cells, confirmation, cell-based, NIH3T3, luminescence, dose retest (AID 435004); type: functional;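 further: stress induced by proteasome inhibitor MG132 added 30 min after compound; luciferase reporter driven by HSF1 response element in NIH3T3 cells; actives raise luminescence as potentiators of the MG132 stress response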
T5 sequence (P38532 whole entry): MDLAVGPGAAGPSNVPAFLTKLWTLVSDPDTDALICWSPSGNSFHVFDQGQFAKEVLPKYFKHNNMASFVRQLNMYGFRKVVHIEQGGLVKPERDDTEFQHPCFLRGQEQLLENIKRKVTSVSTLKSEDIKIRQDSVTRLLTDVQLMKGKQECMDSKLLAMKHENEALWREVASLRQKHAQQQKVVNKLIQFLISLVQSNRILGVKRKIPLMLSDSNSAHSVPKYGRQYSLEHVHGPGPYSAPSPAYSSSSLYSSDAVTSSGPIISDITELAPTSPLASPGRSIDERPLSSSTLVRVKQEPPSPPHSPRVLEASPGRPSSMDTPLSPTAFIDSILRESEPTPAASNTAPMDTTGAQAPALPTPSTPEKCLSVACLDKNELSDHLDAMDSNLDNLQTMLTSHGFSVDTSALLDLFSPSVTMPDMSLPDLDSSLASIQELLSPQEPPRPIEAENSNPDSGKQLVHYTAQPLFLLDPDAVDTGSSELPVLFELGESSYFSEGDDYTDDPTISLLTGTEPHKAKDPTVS

[12] = growth suppression of PTEN-null colon cells, dose response, cell-based, HCT116 PTEN knockout (AID 1047); type: functional;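 further: HCT116 colon tumor cells with PTEN knocked out; cells exposed to compound for 60 hours before readout; potency for loss of cell viability measured by luminescence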
[13] = growth suppression of beta-catenin-knockout colon cells, dose response, cell-based, HCT116, human colon tumor (AID 1045); type: functional;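 further: HCT116 colon tumor cells with beta catenin knocked out; cells exposed to compound for 60 hours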

T1 sequence (P11940 whole entry): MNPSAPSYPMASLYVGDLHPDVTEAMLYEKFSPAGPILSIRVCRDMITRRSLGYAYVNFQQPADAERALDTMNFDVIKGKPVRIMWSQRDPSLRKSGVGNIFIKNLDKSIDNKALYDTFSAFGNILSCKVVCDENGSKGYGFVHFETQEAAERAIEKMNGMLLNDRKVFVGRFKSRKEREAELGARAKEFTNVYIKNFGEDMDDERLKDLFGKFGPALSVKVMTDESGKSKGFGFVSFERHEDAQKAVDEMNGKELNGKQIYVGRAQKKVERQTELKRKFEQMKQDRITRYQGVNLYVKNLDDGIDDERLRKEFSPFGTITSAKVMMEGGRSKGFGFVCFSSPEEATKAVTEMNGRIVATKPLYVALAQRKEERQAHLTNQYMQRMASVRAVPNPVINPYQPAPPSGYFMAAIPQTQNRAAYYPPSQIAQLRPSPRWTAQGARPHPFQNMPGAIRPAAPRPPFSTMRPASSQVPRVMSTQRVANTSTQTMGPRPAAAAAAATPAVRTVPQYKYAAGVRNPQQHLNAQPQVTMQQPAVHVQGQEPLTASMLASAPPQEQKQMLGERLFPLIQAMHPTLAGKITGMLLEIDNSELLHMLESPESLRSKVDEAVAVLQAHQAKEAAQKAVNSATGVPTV

O=C(NC(=S)Nc1ccc2c(c1)OCCO2)c1ccccc1
IC50 [1]: > 66 µM (inactive)
IC50 [2]: > 66 µM (inactive)

C/C(C[n+]1ccccc1)=N\N=C(N)N
AC50 (Cytochrome P450 2C9): inconclusive

COc1cc(C(=O)NCc2cccc3ccccc23)cc(Cl)c1OC
AC50 (Cytochrome P450 2D6): 15.8 µM (inconclusive)
AC50 (Cytochrome P450 2C9): inconclusive

COCCCNC(=O)Cn1nc(-c2ccccc2OC)ccc1=O
EC50 [3]: > 112 µM (not active)
EC50 [4]: > 112 µM (not active)
AC50 (Cytochrome P450 2C19): inconclusive
AC50 (Cytochrome P450 2C9): inconclusive

CSc1nc(C2CC2)cc(-c2cccs2)c1C#N
CC50 [5]: 11.8 µM (active)
AC50 (Cytochrome P450 2C19; read-out: AC50): 1.26 µM (inconclusive)
AC50 (Cytochrome P450 2C9): inconclusive

CCCc1ccc(C(=O)NNc2cc(Cl)ccc2Cl)cc1
AC50 [6]: 2.59 µM (active)
AC50 [7]: 10.1 µM (active)

O=C(NCC(c1ccco1)N1CCCCC1)c1ccc(COc2ccc(Cl)cc2)cc1 (centres undefined)
CC50 (Vero): > 25 µM (active)

CCCc1nnc(NC(=O)CN2C(=O)C3C4C=CC(C4)C3C2=O)s1 (centres undefined)
AC50 (Cytochrome P450 2C19; read-out: AC50): 17.8 µM (inconclusive)
AC50 (Cytochrome P450 2C9): inconclusive

Cc1nnc(C)n1/N=C/c1cccs1
AC50 (Cytochrome P450 2C19): inconclusive
IC50 [8]: > 47.1 µM (inactive)
EC50 [9]: > 53 µM (inactive)
AC50 (Cytochrome P450 1A2): 17.8 µM (inconclusive)

Nc1nc(N)c(/C=N/c2ccc(Br)cc2)c(Nc2ccc(Br)cc2)n1
EC50 [10]: 1.11 µM (active)
EC50 (Streptokinase A): > 150 µM (not active)
EC50 (Streptococcus): 3.09 µM (active)
EC50 [11]: 71.2 µM (active)
CC50 (Vero): > 25 µM (active)

Cc1cscc(C)c1=S
IC50 [1]: > 66 µM (inactive)
IC50 [2]: > 66 µM (inactive)

COc1ccccc1C1SCCN1S(=O)(=O)c1ccccc1 (centres undefined)
IC50 [8]: > 47.1 µM (inactive)
EC50 [9]: > 53 µM (inactive)

CC(C)CC(=O)/N=C1\SC2CS(=O)(=O)CC2N1Cc1ccccc1 (centres undefined)
EC50 [12]: 41.1 µM (active)
EC50 [13]: 75.3 µM (active)

Oc1ccc(Cc2nccc3cc(O)c(O)cc23)cc1O [PAPAVEROLINE]
AC50 (Cytochrome P450 1A2): 5.01 µM (inconclusive)
AC50 (Cytochrome P450 2C9): inconclusive
